In patent US8524725B2, “Methods of using diaminopyrimidine as P2X3 and P2X⅔ receptor modulators for treatment of respiratory and gastrointestinal diseases” (Roche Palo Alto LLC, priority 2005, dated 2013) one finds melting point data, which are given here for four compounds.

Counter-ions that a name gives are not always drawn. A value given as a limit tells only on which side of the number the result lay.

The melting point is the temperature, or range, at which the solid turns liquid. `COc1cc(Cc2cnc(NCCO)nc2N)c(C(C)C)cc1OC` (as salt: HCl) had a melting point of more than 300 °C.

The compound `COc1cc(C(C)C)c(Oc2cnc(N[C@H](C)CO)nc2N)cc1Cl` (as salt: hydrochloride) yielded a melting point of 111.4 to 116.9 °C. `COc1cc(C(C)C)c(Oc2cnc(N)nc2N)cc1Cl` (as salt: trifluoroacetic acid salt) gave a melting point of 135 to 138.5 °C. The compound `CNC(=O)OC[C@@H](C)Nc1ncc(Oc2cc(Cl)c(OC)cc2C(C)C)c(N)n1` (stereo in doubt) yielded a melting point of 63.5 to 69.4 °C.
